Some test systems named below: SN12C; SF-295; OVCAR-8; SW-620; SK-MEL-5; TK-10; NCI-H226; HOP-92; CCRF-CEM; RPMI-8226; SR; SF-539; HOP-62; M14; DU-145; KM12; NCI-H522; MCF7; Malme-3M; U-251.
Assay in all cases: NCI anticancer screen, dose series, 48 h

Where “and” joins values, the source holds several entries; their conditions need not be identical. Identical values can stand only once.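 These data come from cells grown in 96-well plates and exposed to compound for 48 hours at five concentrations. GI50 = concentration required for 50% inhibition of growth.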 Calls of active or inactive are those of the source. Cut-off read from the data, not from the text of the source: active = GI50 up to about 1.1 µM and inactive = higher. Non-standard residues stand in square brackets, D forms with d. Residues, ends and D or L forms follow the SMILES beside them. *: point of attachment. Bn2Val = CC(C)[C@@H](C(=O)*)N(Cc1ccccc1)Cc1ccccc1; NMeV = CN[C@H](C(=O)O)C(C)C; X32 = COc1ccc(CN*)c(OC)c1; dNMeA = CN[C@H](C)C(=O)O

With `Cc1ccnc2c1ccc1nc3ccccc3n12`, the GI50 in the assay on SN12C was 61.5 µM (inactive); in the assay on SF-295, 87.7 µM (inactive); in the assay with OVCAR-8, 28.9 µM (inactive); in the assay with SW-620, > 100 µM (inactive); with SK-MEL-5, 17.7 µM (inactive); with TK-10 it was > 100 µM (inactive). In addition, the GI50 with NCI-H226 is 18.4 µM (inactive); with HOP-92 it was 85.1 µM (inactive); in the assay with CCRF-CEM it was > 100 µM (inactive); in the assay on RPMI-8226 it was > 100 µM (inactive); with SR it was 44.7 µM (inactive); in the assay with SF-539, 58.9 µM (inactive). The GI50 with HOP-62 is 89.7 µM (inactive); in the assay with M14, > 100 µM (inactive); with DU-145, > 100 µM (inactive); in the assay on KM12 it was 22 µM (inactive); with NCI-H522 it was 17.9 µM (inactive); in the assay on MCF7, 4.45 µM (inactive).

`CC(=O)c1c(O)cc(O)c(-c2c(C)cc(O)c3c2C(=O)c2cccc(O)c2C3=O)c1O`: the GI50 is 19.1 µM (inactive) in the assay on SN12C; 11.9 µM (inactive) with Malme-3M; 13.1 µM (inactive) with SF-295; 14.7 µM (inactive) with OVCAR-8; 18.7 µM (inactive) in the assay on SW-620; 15.8 µM (inactive) with TK-10. Moreover, the GI50 is 18.3 µM (inactive) in the assay on NCI-H226; 11.8 µM (inactive) with HOP-92; 7.76 µM (inactive) in the assay on RPMI-8226; 14 µM (inactive) with U-251; 16.3 µM (inactive) in the assay on SR; 15.3 µM (inactive) with SF-539. Also, the GI50 was 14.9 µM (inactive) in the assay on HOP-62; 20.3 µM (inactive) in the assay on M14; 16.3 µM (inactive) in the assay on DU-145; 16.2 µM (inactive) in the assay on KM12; 10 µM (inactive) with NCI-H522; 14.8 µM (inactive) in the assay on MCF7.

For `Cc1n[nH]c(=O)n1C1CC1`, the GI50 in the assay with SN12C is > 100 µM (inactive); in the assay with Malme-3M it was 64.1 µM (inactive); with SF-295 it was > 100 µM (inactive); in the assay on OVCAR-8, > 100 µM (inactive); in the assay on SW-620, > 100 µM (inactive); in the assay with SK-MEL-5 it was > 100 µM (inactive). For the same molecule, the GI50 in the assay on NCI-H226, in the assay on HOP-92, in the assay on CCRF-CEM, in the assay on RPMI-8226, in the assay with U-251 and in the assay on SR was > 100 µM (inactive) each time. In addition, the GI50 in the assay with SF-539, with HOP-62, in the assay with M14, with DU-145, in the assay on KM12 and in the assay with NCI-H522 was > 100 µM (inactive) in each case. In addition, the GI50 in the assay with MCF7 was > 100 µM (inactive).

With `C[C@@H](c1ccccc1)N(CC#N)[C@H]1CCC[C@]1(O)/C=C/c1ccc2c(c1)OCO2`, the GI50 with SN12C, with Malme-3M, in the assay on SF-295, in the assay with OVCAR-8, in the assay on SK-MEL-5 and with TK-10 was > 25 µM (inactive) each time. The GI50 in the assay with NCI-H226, in the assay with HOP-92, in the assay on CCRF-CEM, in the assay with RPMI-8226, in the assay on U-251 and in the assay on SR was > 25 µM (inactive) in each case. In addition, the GI50 is > 25 µM (inactive) with HOP-62; > 25 µM (inactive) in the assay on M14; > 25 µM (inactive) with DU-145; > 25 µM (inactive) with KM12; > 25 µM (inactive) in the assay with NCI-H522; 5.65 µM (inactive) in the assay with MCF7.

In the case of `CCc1c(Cc2cccc3ccccc23)n2c(nc1=O)SCC2OCCO` (centres undefined), the GI50 was > 100 µM (inactive) with SN12C; > 100 µM (inactive) with Malme-3M; 33.1 µM (inactive) in the assay on OVCAR-8; 70.5 µM (inactive) in the assay with SW-620; 95.5 µM (inactive) in the assay on SK-MEL-5; > 100 µM (inactive) with TK-10. Further, the GI50 in the assay on NCI-H226 is > 100 µM (inactive); in the assay with HOP-92, 0.328 µM (active); in the assay on CCRF-CEM, 19.6 µM (inactive); in the assay on RPMI-8226 it was 25.7 µM (inactive); with U-251, 76.9 µM (inactive); in the assay with SR, 25.9 µM (inactive). In addition, the GI50 with SF-539 was > 100 µM (inactive); with M14 it was > 100 µM (inactive); with DU-145 it was 88.3 µM (inactive); in the assay on KM12, 56.5 µM (inactive); in the assay with NCI-H522 it was 49 µM (inactive); in the assay on MCF7 it was 50.5 µM (inactive).

For the molecule `COC(=O)c1ccc(Oc2nc3ccc(C(F)(F)F)cc3nc2-c2ccccc2)cc1`, the GI50 in the assay with SN12C, in the assay with Malme-3M, in the assay on SF-295, in the assay on OVCAR-8, in the assay with SW-620 and in the assay with SK-MEL-5 was > 100 µM (inactive) in each case. In addition, the GI50 with TK-10 was > 100 µM (inactive); in the assay on NCI-H226, > 100 µM (inactive); in the assay with HOP-92 it was > 100 µM (inactive); with CCRF-CEM it was > 100 µM (inactive); in the assay on RPMI-8226, 62.8 µM (inactive); in the assay with U-251 it was > 100 µM (inactive). For the same molecule, the GI50 in the assay on SR was 92.3 µM (inactive); in the assay with SF-539, > 100 µM (inactive); in the assay with HOP-62, > 100 µM (inactive); with DU-145 it was > 100 µM (inactive); with KM12, > 100 µM (inactive); with NCI-H522 it was 94.6 µM (inactive). The GI50 in the assay on MCF7 was 24.9 µM (inactive).

As for `COc1ccc(-c2c(C#N)c(N)n(C3OCC(OC(C)=O)C(OC(C)=O)C3OC(C)=O)c(=S)c2C#N)cc1` (centres undefined), the GI50 was 34.6 µM (inactive) and 34.5 µM (inactive) with SN12C; 44.9 µM (inactive) and 37.5 µM (inactive) in the assay on Malme-3M; 46.9 µM (inactive) and 71.4 µM (inactive) in the assay with SF-295; 39.3 µM (inactive) and 21.8 µM (inactive) in the assay with OVCAR-8; > 100 µM (inactive) and 93.5 µM (inactive) with SW-620; 34.8 µM (inactive) in the assay on SK-MEL-5. In addition, the GI50 in the assay with NCI-H226 is 82.8 µM (inactive) and 77.8 µM (inactive); in the assay on HOP-92 it was 16.4 µM (inactive) and 11.8 µM (inactive); in the assay on CCRF-CEM, 16.4 µM (inactive) and 31 µM (inactive); in the assay with RPMI-8226 it was 25.9 µM (inactive) and 26.4 µM (inactive); with U-251 it was 32.9 µM (inactive) and 54.5 µM (inactive); in the assay with SR, 14.3 µM (inactive) and 14 µM (inactive). In addition, the GI50 is 88.9 µM (inactive) and 87.9 µM (inactive) in the assay with SF-539; 40.9 µM (inactive) and 23.6 µM (inactive) in the assay on HOP-62; 53 µM (inactive) and 49.3 µM (inactive) in the assay on M14; 64.4 µM (inactive) and 60.1 µM (inactive) with DU-145; 53.7 µM (inactive) and 50.1 µM (inactive) with KM12; 38.8 µM (inactive) and 53.3 µM (inactive) in the assay on NCI-H522. Further, in the assay with MCF7, the GI50 is 27.5 µM (inactive) and 49.3 µM (inactive).

As to `O=c1[nH]c(Nc2nc3ccccc3[nH]2)nc2c1CCC2`, the GI50 in the assay on SN12C is > 100 µM (inactive); with Malme-3M, > 100 µM (inactive); with SF-295, 76.9 µM (inactive); in the assay on OVCAR-8 it was 42.6 µM (inactive); in the assay with SW-620, > 100 µM (inactive); in the assay with SK-MEL-5 it was > 100 µM (inactive). Moreover, the GI50 with TK-10 is > 100 µM (inactive); in the assay with NCI-H226, 63.1 µM (inactive); in the assay with HOP-92 it was 30.8 µM (inactive); in the assay on CCRF-CEM it was > 100 µM (inactive); with U-251 it was 64 µM (inactive); in the assay on SR, 28 µM (inactive). Besides, the GI50 was 42.7 µM (inactive) in the assay on SF-539; 49.9 µM (inactive) in the assay on HOP-62; > 100 µM (inactive) with M14; > 100 µM (inactive) in the assay with DU-145; > 100 µM (inactive) in the assay with NCI-H522; > 100 µM (inactive) with MCF7.

For `CCOC(=O)/C(=C\c1ccc(CO)o1)P(=O)(OCC)OCC`, the GI50 is 30.5 µM (inactive) in the assay with SN12C; 20.8 µM (inactive) in the assay with Malme-3M; > 100 µM (inactive) in the assay on SF-295; > 10 µM (inactive) in the assay with OVCAR-8; 27.4 µM (inactive) with SW-620; > 100 µM (inactive) with SK-MEL-5. Besides, the GI50 is 49.5 µM (inactive) in the assay on TK-10; > 100 µM (inactive) with NCI-H226; 23.7 µM (inactive) in the assay on HOP-92; 40.7 µM (inactive) in the assay with RPMI-8226; 42.4 µM (inactive) in the assay with U-251; 41.9 µM (inactive) with SR. Besides, the GI50 in the assay on SF-539 is 19.7 µM (inactive); in the assay with HOP-62 it was 45.8 µM (inactive); in the assay on M14, 31.9 µM (inactive); with DU-145 it was 41.9 µM (inactive); in the assay with KM12, 33.3 µM (inactive); with NCI-H522, 3.88 µM (inactive). For the same molecule, in the assay on MCF7, the GI50 was 43.9 µM (inactive).

Consider `COc1ccc(CNC(=O)[C@@H]2CCCN2C(=O)[C@@H](C)N(C)C(=O)[C@H](C(C)C)N(C)C(=O)[C@@H](NC(=O)[C@H](C(C)C)N(Cc2ccccc2)Cc2ccccc2)C(C)C)c(OC)c1` (Bn2Val-V[NMeV][dNMeA]P-X32), for which the GI50 in the assay on SN12C is 1.78 µM (inactive); with Malme-3M it was 5.12 µM (inactive); with SF-295, 3.34 µM (inactive); in the assay on OVCAR-8 it was 6.41 µM (inactive); in the assay on SW-620, 3.5 µM (inactive); in the assay with TK-10, 4.47 µM (inactive). Moreover, the GI50 with NCI-H226 is 5.41 µM (inactive); with HOP-92 it was 2.74 µM (inactive); in the assay with RPMI-8226, 2.67 µM (inactive); in the assay on U-251 it was 2.25 µM (inactive); in the assay on SR, 2.15 µM (inactive); in the assay with SF-539, 2.44 µM (inactive). For the same molecule, the GI50 was 4.91 µM (inactive) in the assay on HOP-62; 2.84 µM (inactive) in the assay with M14; 6.15 µM (inactive) in the assay on DU-145; 2.36 µM (inactive) with KM12; 3.56 µM (inactive) in the assay with NCI-H522; 3.19 µM (inactive) in the assay on MCF7.

For the origin of these results see ChEMBL document CHEMBL1201862, “PubChem BioAssay data set” (2004).
